Activity calls are given as the source filed them. The rule behind the calls is not given here.
Columns and labels:
[1] = Synergistic antiproliferative activity against human Osimertinib-resistant HCC827AR cell assessed as combination index at 2.5 nM incubated for 72 hrs in presence of 4 uM osimertinib by WST-1 assay; format: functional
DMS-114 [2] = test: Synergistic antiproliferative activity against human DMS-114 cells assessed as combination index at 1 nM incubated for 72 hrs in presence of 4.8 uM venetoclax by WST-1 assay; format: functional
[3] = Synergistic antiproliferative activity against human Osimertinib-resistant HCC827AR cell assessed as combination index at 1.5 nM incubated for 72 hrs in presence of 0.50 uM osimertinib by WST-1 assay; format: functional
HCT-116 [4] = test: Growth inhibition of human HCT-116 cells assessed as reduction in cell viability incubated for 72 hrs; format: functional
DMS-114 [5] = test: Synergistic antiproliferative activity against human DMS-114 cells assessed as combination index at 1 nM incubated for 72 hrs in presence of 12 uM venetoclax by WST-1 assay; format: functional
HCT-116 [6] = test: Modulation of RNA splicing in human HCT-116 cells assessed as decrease in MCL-1L expression by Western blot analysis; format: functional, cell-based; conditions: dose 3-100 nM
DMS-53 [7] = test: Synergistic antiproliferative activity against human DMS-53 cells assessed as combination index at 0.5 nM incubated for 72 hrs in presence of […] venetoclax by WST-1 assay; format: functional
DMS-53 [8] = test: Synergistic antiproliferative activity against human DMS-53 cells assessed as combination index at 1 nM incubated for 72 hrs in presence of […] venetoclax by WST-1 assay; format: functional
DMS-114 [9] = test: Synergistic antiproliferative activity against human DMS-114 cells assessed as combination index at 3 nM incubated for 72 hrs in presence of 4.8 uM venetoclax by WST-1 assay; format: functional
[10] = Synergistic antiproliferative activity against human Osimertinib-resistant HCC827AR cell assessed as combination index at 1.5 nM incubated for 72 hrs in presence of 0.25 uM osimertinib by WST-1 assay; format: functional
DMS-114 [11] = test: Synergistic antiproliferative activity against human DMS-114 cells assessed as combination index at 2 nM incubated for 72 hrs in presence of 2.4 uM venetoclax by WST-1 assay; format: functional
DMS-53 [12] = test: Synergistic antiproliferative activity against human DMS-53 cells assessed as combination index at 2 nM incubated for 72 hrs in presence of 25 […] by WST-1 assay; format: functional
DMS-53 [13] = test: Synergistic antiproliferative activity against human DMS-53 cells assessed as combination index at 0.5 nM incubated for 72 hrs in presence of 25 uM venetoclax by WST-1 assay; format: functional
DMS-114 [14] = test: Synergistic antiproliferative activity against human DMS-114 cells assessed as combination index at 3 nM incubated for 72 hrs in presence of 6 uM venetoclax by WST-1 assay; format: functional
[15] = Synergistic antiproliferative activity against human Osimertinib-resistant HCC827AR cell assessed as combination index at 1 nM incubated for 72 hrs in presence of 4 uM osimertinib by WST-1 assay; format: functional
[16] = Synergistic antiproliferative activity against human Osimertinib-resistant HCC827AR cell assessed as combination index at 1 nM incubated for 72 hrs in presence of 2 uM osimertinib by WST-1 assay; format: functional
DMS-53 [17] = test: Synergistic antiproliferative activity against human DMS-53 cells assessed as combination index at 2 nM incubated for 72 hrs in presence of 400 […] by WST-1 assay; format: functional
DMS-53 [18] = test: Synergistic antiproliferative activity against human DMS-53 cells assessed as combination index at 0.5 nM incubated for 72 hrs in presence of 50 uM venetoclax by WST-1 assay; format: functional
[19] = Synergistic antiproliferative activity against human Osimertinib-resistant HCC827AR cell assessed as combination index at 1.5 nM incubated for 72 hrs in presence of 1 uM osimertinib by WST-1 assay; format: functional
DMS-53 [20] = test: Synergistic antiproliferative activity against human DMS-53 cells assessed as combination index at 1.5 nM incubated for 72 hrs in presence of […] venetoclax by WST-1 assay; format: functional
DMS-114 [21] = test: Synergistic antiproliferative activity against human DMS-114 cells assessed as combination index at 2 nM incubated for 72 hrs in presence of 6 uM venetoclax by WST-1 assay; format: functional
SW48 = test: Growth inhibition of human SW48 cells assessed as reduction in cell viability incubated for 72 hrs; format: functional
[22] = Synergistic antiproliferative activity against human Osimertinib-resistant HCC827AR cell assessed as combination index at 2 nM incubated for 72 hrs in presence of 2 uM osimertinib by WST-1 assay; format: functional
DMS-53 [23] = test: Synergistic antiproliferative activity against human DMS-53 cells assessed as combination index at 1 nM incubated for 72 hrs in presence of 50 uM venetoclax by WST-1 assay; format: functional
DMS-114 [24] = test: Modulation of RNA splicing in human DMS-114 cells at 3 to 30 nM by Western blot analysis; format: functional, cell-based; conditions: dose 3-30 nM
[25] = Metabolic stability in CD1 mouse plasma assessed as half life measured after 48 hrs by LC-MS analysis; format: ADME, cell-free
[26] = Synergistic antiproliferative activity against human Osimertinib-resistant HCC827AR cell assessed as combination index at 2 nM incubated for 72 hrs in presence of 0.50 uM osimertinib by WST-1 assay; format: functional
DMS-114 [27] = test: Growth inhibition of human DMS-114 cells assessed as reduction in cell viability incubated for 72 hrs; format: functional
DMS-114 [28] = test: Synergistic antiproliferative activity against human DMS-114 cells assessed as combination index at 3 nM incubated for 72 hrs in presence of 12 uM venetoclax by WST-1 assay; format: functional
[29] = Synergistic antiproliferative activity against human Osimertinib-resistant HCC827AR cell assessed as combination index at 1.5 nM incubated for 72 hrs in presence of 2 uM osimertinib by WST-1 assay; format: functional
[30] = Synergistic antiproliferative activity against human Osimertinib-resistant HCC827AR cell assessed as combination index at 2 nM incubated for 72 hrs in presence of 0.25 uM osimertinib by WST-1 assay; format: functional

## COCO[C@@H](C)/C=C\C(=O)N[C@@H]1C[C@H](C)[C@H](C/C=C(C)/C=C/[C@H]2OC(C)(C)C[C@@]3(CO3)[C@@H]2O)O[C@@H]1C
[1]
  CI: 0.83
DMS-114 [2]
  CI: 1.3
[3]
  CI: 1.28
HCT-116 [4]
  GI50: 2 nM
DMS-114 [5]
  CI: 0.88
HCT-116 [6]
  Activity: Dose-Dependent Effect
DMS-53 [7]
  CI: 1.6
DMS-53 [8]
  CI: 0.91
DMS-114 [9]
  CI: 0.21
[10]
  CI: 0.92
DMS-114 [11]
  CI: 0.69
DMS-53 [12]
  CI: 0.58
DMS-53 [13]
  CI: 1.33
DMS-114 [14]
  CI: 0.2
[15]
  CI: 0.93
[16]
  CI: 1.37
DMS-53 [17]
  CI: 0.33
DMS-53 [18]
  CI: 1.26
[19]
  CI: 1.5
DMS-53 [20]
  CI: 0.72
DMS-114 [21]
  CI: 0.67
SW48
  GI50: 2.5 nM
[22]
  CI: 1.17
DMS-53 [23]
  CI: 0.8
DMS-114 [24]
  Activity: Active
[25]
  half-life: 780 min
[26]
  CI: 1.08
DMS-114 [27]
  GI50: 2.3 nM
DMS-114 [28]
  CI: 0.14
[29]
  CI: 1.34
[30]
  CI: 0.97
